For data set [1], the system named is skin. In words: skin cell-renewal (exfoliation) rate after topical application. The class given is in vivo, human. Here is the method:
(§1) Skin irritation, expressed as a “Sting” percentage, was also determined. The increase in skin cell renewal rate and irritation level was measured substantially according to the procedure described in Soap/Cosmetics/Chemical Specialties for September 1993 at pp. 54-58 and 76.

Data set [2] relates to skin. In words: skin irritation level (Sting %) after topical application. Format: in vivo, human. Here is the method: as §1
The conditions of data set [3]: cited from earlier work.
Setting [4] is: 0.5 wt % active, composition pH 5.65.
[5] abbreviates: 1.0 wt % active, composition pH 7.21.

Each structure is given as a SMILES string.

For the compound `Cc1c(C)c2c(c(C)c1OP(=O)(O)O)CC[C@@](C)(CCC[C@H](C)CCC[C@H](C)CCCC(C)C)O2` [VEP, Sodium Vitamin E Phosphate], the “Cell-Renewal Rate %” value with skin [1] (setting [4]) was determined as 15.2%; with skin [1] (setting [5]) it was 16.6%. Moreover, the figures for the “Irritation Level (Sting %)” value in the data set on skin [2] (setting [4]) and in the data set with skin [2] (setting [5]) were 17.3% and 10.7%, respectively. In the data set with skin [2] (at pH 7.21, relative to Lactic Acid), the “irritation to the skin relative to Lactic Acid” value was “about one-twentieth”. Besides, the “times less irritating to the skin than Lactic Acid” value with skin [2] (relative to Lactic Acid 5 wt %, pH 3) is on record as “at least 4.5 times”. Besides, the solubility in water entry in data set [3] was “soluble in water”.
Take `CC(O)C(=O)O` (centres unmarked) [Lactic Acid, reference compound]: in the data set on skin [1] (5 wt % active, composition pH 3), the “Cell-Renewal Rate %” value was 31.7%.

These data come from patent US6645514B1, “Increasing skin cell renewal with water-soluble Vitamin E” (Access Business Group International, LLC, priority 2002, dated 2003).
